Read-outs that look alike come from different tables or passages of the source.
Legend:
[1] = test system: Amaranthus rudis (AMATA), tall water hemp; experiment: Postemergence herbicide evaluation, growth of Amaranthus rudis (AMATA); type: in vivo; details: Amaranthus tuberculatus, post-emergence, percent reduction in plant size relative to untreated control, read-out: Ave. AMATA; for pest or weed control at 280 g/ha: 280 g ae/ha; for pest or weed control at 560 g/ha: 560 g ae/ha
[2] = test system: Ambrosia artemisiifolia (AMBEL), common ragweed; experiment: Postemergence herbicide evaluation, growth of Ambrosia artemisiifolia (AMBEL); type: in vivo; details: Ambrosia artemisiifolia, post-emergence, percent reduction in plant size relative to untreated control, read-out: AVE. AMBEL; for pest or weed control at 280 g/ha: 280 g ae/ha; for pest or weed control at 560 g/ha: 560 g ae/ha
[3] = test system: Abutilon theophrasti (ABUTH), velvetleaf; experiment: Postemergence herbicide evaluation, growth of Abutilon theophrasti (ABUTH); type: in vivo; details: Abutilon theophrasti, post-emergence, percent reduction in plant size relative to untreated control, read-out: AVE. ABUTH; for pest or weed control at 280 g/ha: 280 g ae/ha; for pest or weed control at 560 g/ha: 560 g ae/ha
[4] = test system: Chenopodium album (CHEAL), common lambsquarters; experiment: Postemergence herbicide evaluation, growth of Chenopodium album (CHEAL); type: in vivo; details: Chenopodium album, post-emergence, percent reduction in plant size relative to untreated control, read-out: Ave. CHEAL; for pest or weed control at 280 g/ha: 280 g ae/ha; for pest or weed control at 560 g/ha: 560 g ae/ha
[5] = test system: glyphosate resistant Conyza canadensis (L.) (ERICA), horseweed; experiment: Postemergence herbicide evaluation, growth of Conyza canadensis (ERICA); type: in vivo; details: Erigeron canadensis, post-emergence, percent reduction in plant size relative to untreated control, read-out: Ave. ERICA; for pest or weed control at 280 g/ha: 280 g ae/ha; for pest or weed control at 560 g/ha: 560 g ae/ha
[6] = Volatility of compounds measured by thermogravimetric analysis (TGA); type: physicochemical
[7] = test system: weeds (ABUTH, AMATA, AMBEL, CHEAL, ERICA); experiment: Postemergence herbicide evaluation, overall average % weed control across ABUTH, AMATA, AMBEL, CHEAL, ERICA; type: in vivo; details: post-emergence, average over the five weeds, read-out: Overall Ave % Weed Control; for pest or weed control at 280 g/ha: 280 g ae/ha; for pest or weed control at 560 g/ha: 560 g ae/ha
[8] = test system: Glycine max (Enlist E3 traited soybeans, GLXMA); details: Enlist E3 soybeans, percent reduction in plant size relative to untreated control

SMILES: Cc1ccc(S(=O)(=O)NC(=O)COc2ccc(Cl)cc2Cl)cc1 [Compound D5]
- pest or weed control at 280 g/ha ([1]; 168 h, 7 DAA): 73%
- pest or weed control at 560 g/ha ([1]; 168 h, 7 DAA): 73%
- pest or weed control at 280 g/ha ([1]; 336 h, 14 DAA): 78%
- pest or weed control at 560 g/ha ([1]; 336 h, 14 DAA): 75%
- pest or weed control at 280 g/ha ([1]; 504 h, 21 DAA): 75%
- pest or weed control at 560 g/ha ([1]; 504 h, 21 DAA): 73%
- pest or weed control at 280 g/ha ([2]; 168 h, 7 DAA): 48%
- pest or weed control at 560 g/ha ([2]; 168 h, 7 DAA): 65%
- pest or weed control at 280 g/ha ([2]; 336 h, 14 DAA): 68%
- pest or weed control at 560 g/ha ([2]; 336 h, 14 DAA): 90%
- pest or weed control at 280 g/ha ([2]; 504 h, 21 DAA): 58%
- pest or weed control at 560 g/ha ([2]; 504 h, 21 DAA): 85%
- pest or weed control at 280 g/ha ([3]; 168 h, 7 DAA): 30%
- pest or weed control at 560 g/ha ([3]; 168 h, 7 DAA): 40%
- pest or weed control at 280 g/ha ([3]; 336 h, 14 DAA): 23%
- pest or weed control at 560 g/ha ([3]; 336 h, 14 DAA): 35%
- pest or weed control at 280 g/ha ([3]; 504 h, 21 DAA): 25%
- pest or weed control at 560 g/ha ([3]; 504 h, 21 DAA): 25%
- pest or weed control at 280 g/ha ([4]; 168 h, 7 DAA): 65%
- pest or weed control at 560 g/ha ([4]; 168 h, 7 DAA): 73%
- pest or weed control at 280 g/ha ([4]; 336 h, 14 DAA): 70%
- pest or weed control at 560 g/ha ([4]; 336 h, 14 DAA): 73%
- pest or weed control at 280 g/ha ([4]; 504 h, 21 DAA): 65%
- pest or weed control at 560 g/ha ([4]; 504 h, 21 DAA): 68%
- pest or weed control at 280 g/ha ([5]; 168 h, 7 DAA): 63%
- pest or weed control at 560 g/ha ([5]; 168 h, 7 DAA): 53%
- pest or weed control at 280 g/ha ([5]; 336 h, 14 DAA): 78%
- pest or weed control at 560 g/ha ([5]; 336 h, 14 DAA): 75%
- pest or weed control at 280 g/ha ([5]; 504 h, 21 DAA): 73%
- pest or weed control at 560 g/ha ([5]; 504 h, 21 DAA): 68%
- TGA Data (rate of weight loss, volatility) [6]: 0.02 µg/min
- pest or weed control at 280 g/ha ([7]; 168 h, 7 DAA): 56%
- pest or weed control at 560 g/ha ([7]; 168 h, 7 DAA): 61%
- pest or weed control at 280 g/ha ([7]; 336 h, 14 DAA): 63%
- pest or weed control at 560 g/ha ([7]; 336 h, 14 DAA): 70%
- pest or weed control at 280 g/ha ([7]; 504 h, 21 DAA): 59%
- pest or weed control at 560 g/ha ([7]; 504 h, 21 DAA): 63%
- AVE. GLXMA ([8]; 280 g ae/ha, 7 DAA): 4%
- AVE. GLXMA ([8]; 280 g ae/ha, 14 DAA): 2%
- AVE. GLXMA ([8]; 280 g ae/ha, 21 DAA): 3%
- AVE. GLXMA ([8]; 560 g ae/ha, 7 DAA): 9%
- AVE. GLXMA ([8]; 560 g ae/ha, 14 DAA): 5%
- AVE. GLXMA ([8]; 560 g ae/ha, 21 DAA): 5%

Source: US20260042731A1, “(2,4-DICHLOROPHENOXY)ACETIC ACID ANALOGS” (CORTEVA AGRISCIENCE LLC, priority 2022, published 2026)
